Data reported in patent US20230365592A1 (Agios Pharmaceuticals, Inc., priority 2022, published 2023).

biological target: T1, human PAH with the R408W mutation (Homo sapiens, UniProt P00439, R408W); test: Cell Based Phenylalanine Flux Assay; conditions: A375 cells expressing human PAH R408W; 24 hrs compound incubation; 13C-Tyrosine by LC-MS; average where tested multiple times; read-out: AC50;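 further: after compound treatment, cells received sepiapterin plus isotope-labelled Phenylalanine for 4 hours, then labelled Tyrosine in the medium was quantified, 10-point 2-fold dilution series run in duplicate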
T1 construct: expressed in transfected cells
T1 sequence (P00439 1-452 R408W): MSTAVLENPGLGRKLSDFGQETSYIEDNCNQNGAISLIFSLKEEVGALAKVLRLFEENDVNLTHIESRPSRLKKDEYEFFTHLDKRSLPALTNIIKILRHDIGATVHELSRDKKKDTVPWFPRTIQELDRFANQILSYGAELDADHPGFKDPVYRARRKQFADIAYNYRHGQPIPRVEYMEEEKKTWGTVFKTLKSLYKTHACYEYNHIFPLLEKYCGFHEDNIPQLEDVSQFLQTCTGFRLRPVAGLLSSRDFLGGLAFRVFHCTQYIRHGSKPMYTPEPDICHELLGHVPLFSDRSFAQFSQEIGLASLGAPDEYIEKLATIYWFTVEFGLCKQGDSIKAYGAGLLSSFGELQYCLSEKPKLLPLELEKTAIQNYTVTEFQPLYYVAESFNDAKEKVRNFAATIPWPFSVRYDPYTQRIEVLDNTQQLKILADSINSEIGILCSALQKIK

Row | SMILES | AC50 [µM]
1 | FC(F)(F)c1nnc(N2CCc3[nH]cnc3[C@H]2c2cc3c(C(F)(F)F)cccn3n2)o1 [Example 1821, (S)-2-(trifluoromethyl)-5-(4-(4-(trifluoromethyl)pyrazolo[1,5-a]pyridin-2-yl)-6,7-dihydro-1H-imidazo[4,5-c]pyridin-5(4H)-yl)-1,3,4-oxadiazole] | < 0.5
2 | CC(C)(C)c1nnc(N2CCc3[nH]cnc3[C@H]2c2cc3c(C(F)F)cccn3n2)o1 [Example 1825, (S)-2-(tert-butyl)-5-(4-(4-(difluoromethyl)pyrazolo[1,5-a]pyridin-2-yl)-6,7-dihydro-1H-imidazo[4,5-c]pyridin-5(4H)-yl)-1,3,4-oxadiazole] | 0.5 to 1
3 | Cc1cccn2nc([C@@H]3c4nc[nH]c4CCN3c3ncc(N)cn3)cc12 [Example 1827, (S)-2-(4-(4-methylpyrazolo[1,5-a]pyridin-2-yl)-6,7-dihydro-1H-imidazo[4,5-c]pyridin-5(4H)-yl)pyrimidin-5-amine] | 0.5 to 1
4 | FC(F)c1cccn2nc([C@H]3c4nc[nH]c4CCN3c3cncc(Cl)n3)cc12 [Example 1828, (R)-5-(6-chloropyrazin-2-yl)-4-(4-(difluoromethyl)pyrazolo[1,5-a]pyridin-2-yl)-4,5,6,7-tetrahydro-1H-imidazo[4,5-c]pyridine] | 1 to 5
5 | FC(F)c1cccn2nc([C@@H]3c4nc[nH]c4CCN3c3cncc(Cl)n3)cc12 [Example 1829, (S)-5-(6-chloropyrazin-2-yl)-4-(4-(difluoromethyl)pyrazolo[1,5-a]pyridin-2-yl)-4,5,6,7-tetrahydro-1H-imidazo[4,5-c]pyridine] | < 0.5
6 | Clc1cccn2nc([C@H]3c4nc[nH]c4CCN3c3nnc(C4CCC4)o3)cc12 [Example 1830, (R)-2-(4-(4-chloropyrazolo[1,5-a]pyridin-2-yl)-6,7-dihydro-1H-imidazo[4,5-c]pyridin-5(4H)-yl)-5-cyclobutyl-1,3,4-oxadiazole] | > 5
7 | Clc1cccn2nc([C@@H]3c4nc[nH]c4CCN3c3nnc(C4CCC4)o3)cc12 [Example 1831, (S)-2-(4-(4-chloropyrazolo[1,5-a]pyridin-2-yl)-6,7-dihydro-1H-imidazo[4,5-c]pyridin-5(4H)-yl)-5-cyclobutyl-1,3,4-oxadiazole] | 0.5 to 1
8 | CC(C)(C)c1nnc(N2CCc3[nH]cnc3[C@H]2c2cc3c(Cl)cccn3n2)o1 [Example 1833, (S)-2-(tert-butyl)-5-(4-(4-chloropyrazolo[1,5-a]pyridin-2-yl)-6,7-dihydro-1H-imidazo[4,5-c]pyridin-5(4H)-yl)-1,3,4-oxadiazole] | 0.5 to 1
9 | Nc1cnc(N2CCc3[nH]cnc3[C@H]2c2cc3c(C(F)(F)F)cccn3n2)nc1 [Example 1835, (S)-2-(4-(4-(trifluoromethyl)pyrazolo[1,5-a]pyridin-2-yl)-1,4,6,7-tetrahydro-5H-imidazo[4,5-c]pyridin-5-yl)pyrimidin-5-amine] | 0.5 to 1
10 | Nc1cnc(N2CCc3[nH]cnc3[C@H]2c2cc3c(F)cccn3n2)nc1 [Example 1837, (S)-2-(4-(4-fluoropyrazolo[1,5-a]pyridin-2-yl)-1,4,6,7-tetrahydro-5H-imidazo[4,5-c]pyridin-5-yl)pyrimidin-5-amine] | 0.5 to 1
11 | O=C(c1nnc(C2CC2)o1)N1CCc2[nH]cnc2[C@H]1c1cc2c(C3CC3)cccn2n1 [Example 1838, (S)-(5-cyclopropyl-1,3,4-oxadiazol-2-yl)(4-(4-cyclopropylpyrazolo[1,5-a]pyridin-2-yl)-1,4,6,7-tetrahydro-5H-imidazo[4,5-c]pyridin-5-yl)methanone] | < 0.5
12 | O=C(c1nnc(C2CC2)o1)N1CCc2[nH]cnc2[C@@H]1c1cc2c(C3CC3)cccn2n1 [Example 1839, (R)-(5-cyclopropyl-1,3,4-oxadiazol-2-yl)(4-(4-cyclopropylpyrazolo[1,5-a]pyridin-2-yl)-1,4,6,7-tetrahydro-5H-imidazo[4,5-c]pyridin-5-yl)methanone] | > 5
13 | CC(C)(C)c1nnc(C(=O)N2CCc3[nH]cnc3[C@H]2c2cc3c(C4CC4)cccn3n2)o1 [Example 1840, (S)-(5-(tert-butyl)-1,3,4-oxadiazol-2-yl)(4-(4-cyclopropylpyrazolo[1,5-a]pyridin-2-yl)-1,4,6,7-tetrahydro-5H-imidazo[4,5-c]pyridin-5-yl)methanone] | < 0.5
14 | CC(C)(C)c1nnc(C(=O)N2CCc3[nH]cnc3[C@@H]2c2cc3c(C4CC4)cccn3n2)o1 [Example 1841, (R)-(5-(tert-butyl)-1,3,4-oxadiazol-2-yl)(4-(4-cyclopropylpyrazolo[1,5-a]pyridin-2-yl)-1,4,6,7-tetrahydro-5H-imidazo[4,5-c]pyridin-5-yl)methanone] | > 5
15 | Cc1cccn2nc([C@H]3c4nc[nH]c4CCN3c3nnc(-c4c(F)cccc4F)o3)cc12 [Example 1844, (R)-2-(2,6-difluorophenyl)-5-(4-(4-methylpyrazolo[1,5-a]pyridin-2-yl)-6,7-dihydro-1H-imidazo[4,5-c]pyridin-5(4H)-yl)-1,3,4-oxadiazole] | > 5
16 | Cc1cccn2nc([C@@H]3c4nc[nH]c4CCN3c3nnc(-c4c(F)cccc4F)o3)cc12 [Example 1845, (S)-2-(2,6-difluorophenyl)-5-(4-(4-methylpyrazolo[1,5-a]pyridin-2-yl)-6,7-dihydro-1H-imidazo[4,5-c]pyridin-5(4H)-yl)-1,3,4-oxadiazole] | < 0.5
17 | Fc1cccc(F)c1-c1nnc(N2CCc3[nH]cnc3[C@H]2c2cc3c(C(F)(F)F)cccn3n2)o1 [Example 1847, (S)-2-(2,6-difluorophenyl)-5-(4-(4-(trifluoromethyl)pyrazolo[1,5-a]pyridin-2-yl)-6,7-dihydro-1H-imidazo[4,5-c]pyridin-5(4H)-yl)-1,3,4-oxadiazole] | < 0.5
18 | FC(F)(F)c1nnc(N2CCc3[nH]cnc3[C@@H]2c2cc3c(Cl)cccn3n2)o1 [Example 1848, (R)-2-(4-(4-chloropyrazolo[1,5-a]pyridin-2-yl)-6,7-dihydro-1H-imidazo[4,5-c]pyridin-5(4H)-yl)-5-(trifluoromethyl)-1,3,4-oxadiazole] | > 5
19 | FC(F)(F)c1nnc(N2CCc3[nH]cnc3[C@H]2c2cc3c(Cl)cccn3n2)o1 [Example 1849, (S)-2-(4-(4-chloropyrazolo[1,5-a]pyridin-2-yl)-6,7-dihydro-1H-imidazo[4,5-c]pyridin-5(4H)-yl)-5-(trifluoromethyl)-1,3,4-oxadiazole] | < 0.5
20 | Cc1cccc2cc([C@@H]3c4nc[nH]c4CCN3c3nnc(C(F)(F)F)o3)nn12 [Example 1850, (S)-2-(4-(7-methylpyrazolo[1,5-a]pyridin-2-yl)-6,7-dihydro-1H-imidazo[4,5-c]pyridin-5(4H)-yl)-5-(trifluoromethyl)-1,3,4-oxadiazole] | 0.5 to 1
21 | Cc1cccc2cc([C@H]3c4nc[nH]c4CCN3c3nnc(C(F)(F)F)o3)nn12 [Example 1851, (R)-2-(4-(7-methylpyrazolo[1,5-a]pyridin-2-yl)-6,7-dihydro-1H-imidazo[4,5-c]pyridin-5(4H)-yl)-5-(trifluoromethyl)-1,3,4-oxadiazole] | 1 to 5
22 | Nc1cnc(N2CCc3[nH]cnc3[C@H]2c2cc3c(C(F)F)cccn3n2)nc1 [Example 1852, (S)-2-(4-(4-(difluoromethyl)pyrazolo[1,5-a]pyridin-2-yl)-1,4,6,7-tetrahydro-5H-imidazo[4,5-c]pyridin-5-yl)pyrimidin-5-amine] | 0.5 to 1
